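All cell lines were grown in 96-well plates and treated with compound for 48 hours. Abbreviation: GI50, concentration required for 50% inhibition of growth.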 The source made the active and inactive calls. No stated cut-off is given here; in the data, active = GI50 up to about 1.1 µM and inactive = higher.
Columns and labels:
Experiment in all cases: inhibition of tumour cell growth, NCI panel, 48 h
HOP-92 = system: HOP-92
786-0 = system: 786-0
NCI-H460 = system: NCI-H460
UO-31 = system: UO-31
LOX IMVI = system: LOX IMVI
SR = system: SR
NCI-H226 = system: NCI-H226
OVCAR-4 = system: OVCAR-4
A549 = system: A549
MOLT-4 = system: MOLT-4
EKVX = system: EKVX
COLO 205 = system: COLO 205
IGROV-1 = system: IGROV-1
OVCAR-3 = system: OVCAR-3
NCI-H522 = system: NCI-H522
HT-29 = system: HT-29
HCC 2998 = system: HCC 2998
U-251 = system: U-251
MCF7 = system: MCF7
PC-3 = system: PC-3

COc1cc(/C=C2\[C@H]3c4c(c(OC)c(C)c(OC)c4OC)CC(C(=O)N2Cc2ccccc2)N3C)c(OC)c(C)c1OC
GI50 (HOP-92): 19.9 µM (inactive) | GI50 (786-0): 18.1 µM (inactive) | GI50 (NCI-H460): 16.6 µM (inactive) | GI50 (UO-31): 19.3 µM (inactive) | GI50 (LOX IMVI): 18.4 µM (inactive) | GI50 (SR): 21.2 µM (inactive) | GI50 (NCI-H226): 10.4 µM (inactive) | GI50 (OVCAR-4): 16.1 µM (inactive) | GI50 (A549): > 100 µM (inactive) | GI50 (MOLT-4): 19.7 µM (inactive) | GI50 (EKVX): 26.1 µM (inactive) | GI50 (COLO 205): 17.3 µM (inactive) | GI50 (IGROV-1): 21.8 µM (inactive) | GI50 (OVCAR-3): 16.7 µM (inactive) | GI50 (NCI-H522): 13.1 µM (inactive) | GI50 (HT-29): 19.1 µM (inactive) | GI50 (HCC 2998): 21.7 µM (inactive) | GI50 (U-251): 19.5 µM (inactive)

Clc1ccc(-c2cn3c(nc4ccccc43)c(/C=C/c3ccco3)n2)cc1
GI50 (HOP-92): 16.5 µM (inactive) | GI50 (786-0): 30.3 µM (inactive) | GI50 (NCI-H460): 23.5 µM (inactive) | GI50 (UO-31): 48.2 µM (inactive) | GI50 (MCF7): 7.85 µM (inactive) | GI50 (LOX IMVI): 33 µM (inactive) | GI50 (SR): 17.9 µM (inactive) | GI50 (NCI-H226): > 100 µM (inactive) | GI50 (OVCAR-4): 25.3 µM (inactive) | GI50 (A549): 46.6 µM (inactive) | GI50 (COLO 205): 41.7 µM (inactive) | GI50 (IGROV-1): 30.5 µM (inactive) | GI50 (OVCAR-3): 34.4 µM (inactive) | GI50 (HT-29): 62.8 µM (inactive) | GI50 (HCC 2998): 22.2 µM (inactive) | GI50 (U-251): 28.2 µM (inactive)

Cn1c(=O)c2[nH]c(Nc3cccc(Cl)c3)nc2n(C)c1=O
GI50 (HOP-92): 2.78 µM (inactive) | GI50 (786-0): 4.4 µM (inactive) | GI50 (MCF7): 3.79 µM (inactive) | GI50 (LOX IMVI): 7.13 µM (inactive) | GI50 (OVCAR-4): 4.05 µM (inactive) | GI50 (PC-3): 4.11 µM (inactive) | GI50 (A549): 5.6 µM (inactive) | GI50 (MOLT-4): 3.13 µM (inactive) | GI50 (EKVX): 4.16 µM (inactive) | GI50 (COLO 205): 3.6 µM (inactive) | GI50 (IGROV-1): 3.8 µM (inactive) | GI50 (HT-29): 3.99 µM (inactive) | GI50 (HCC 2998): 4.27 µM (inactive)

O=C(Cc1ccccc1)NNc1nc(NNC(=O)c2ccncc2)nc(Nc2cccc(Cl)c2)n1
GI50 (HOP-92): > 10 µM (inactive) | GI50 (786-0): > 10 µM (inactive) | GI50 (NCI-H460): > 10 µM (inactive) | GI50 (MCF7): > 10 µM (inactive) | GI50 (LOX IMVI): > 10 µM (inactive) | GI50 (SR): > 10 µM (inactive) | GI50 (OVCAR-4): > 10 µM (inactive) | GI50 (A549): > 10 µM (inactive) | GI50 (MOLT-4): > 10 µM (inactive) | GI50 (EKVX): > 10 µM (inactive) | GI50 (COLO 205): > 10 µM (inactive) | GI50 (IGROV-1): > 10 µM (inactive) | GI50 (HT-29): > 10 µM (inactive) | GI50 (HCC 2998): > 10 µM (inactive) | GI50 (U-251): > 10 µM (inactive)

Cc1ccc(S(=O)(=O)NC(=O)NC(Cc2ccc(O)c(O)c2)C(=O)O)cc1 (centres undefined)
GI50 (HOP-92): 80.5 µM (inactive) | GI50 (786-0): 20.4 µM (inactive) | GI50 (NCI-H460): > 100 µM (inactive) | GI50 (UO-31): > 100 µM (inactive) | GI50 (MCF7): > 100 µM (inactive) | GI50 (LOX IMVI): > 100 µM (inactive) | GI50 (NCI-H226): > 100 µM (inactive) | GI50 (OVCAR-4): > 100 µM (inactive) | GI50 (PC-3): > 100 µM (inactive) | GI50 (A549): > 100 µM (inactive) | GI50 (MOLT-4): > 100 µM (inactive) | GI50 (EKVX): > 100 µM (inactive) | GI50 (COLO 205): > 100 µM (inactive) | GI50 (IGROV-1): > 100 µM (inactive) | GI50 (OVCAR-3): > 100 µM (inactive) | GI50 (NCI-H522): > 100 µM (inactive) | GI50 (HT-29): > 100 µM (inactive) | GI50 (U-251): > 100 µM (inactive)

C[C@H](NC1=CC(=O)C(N[C@@H](C)[C@H](O)c2ccccc2)=CC1=O)[C@H](O)c1ccccc1
GI50 (HOP-92): > 100 µM (inactive) | GI50 (786-0): > 100 µM (inactive) | GI50 (NCI-H460): 63.8 µM (inactive) | GI50 (UO-31): 64 µM (inactive) | GI50 (LOX IMVI): > 100 µM (inactive) | GI50 (SR): 14.6 µM (inactive) | GI50 (NCI-H226): 62.1 µM (inactive) | GI50 (OVCAR-4): > 100 µM (inactive) | GI50 (PC-3): 43.1 µM (inactive) | GI50 (A549): 95.3 µM (inactive) | GI50 (MOLT-4): 37.2 µM (inactive) | GI50 (EKVX): > 100 µM (inactive) | GI50 (COLO 205): 68.5 µM (inactive) | GI50 (IGROV-1): > 100 µM (inactive) | GI50 (OVCAR-3): > 100 µM (inactive) | GI50 (NCI-H522): 61.8 µM (inactive) | GI50 (HT-29): 27.3 µM (inactive) | GI50 (U-251): > 100 µM (inactive)

CC(C)C(=S)N(C)O
GI50 (HOP-92): 47.8 µM (inactive) | GI50 (786-0): 18.3 µM (inactive) | GI50 (NCI-H460): 5.69 µM (inactive) | GI50 (UO-31): 9.64 µM (inactive) | GI50 (LOX IMVI): 11.8 µM (inactive) | GI50 (SR): 0.481 µM (active) | GI50 (NCI-H226): 44 µM (inactive) | GI50 (OVCAR-4): 9.89 µM (inactive) | GI50 (A549): 12.4 µM (inactive) | GI50 (MOLT-4): 0.809 µM (active) | GI50 (EKVX): 23.1 µM (inactive) | GI50 (COLO 205): 0.35 µM (active) | GI50 (IGROV-1): > 62.5 µM (inactive) | GI50 (OVCAR-3): 2.82 µM (inactive) | GI50 (NCI-H522): 6.08 µM (inactive) | GI50 (HT-29): 1.46 µM (inactive) | GI50 (HCC 2998): 40.2 µM (inactive) | GI50 (U-251): 28.4 µM (inactive)

COC(=O)[C@@H]1C(=O)O[C@@H](c2ccc(OC)c(OC)c2OC)[C@@H]1C(=O)OC.COC(=O)[C@H]1C(=O)O[C@@H](c2ccc(OC)c(OC)c2OC)[C@@H]1C(=O)OC
GI50 (HOP-92): > 100 µM (inactive) | GI50 (786-0): > 100 µM (inactive) | GI50 (NCI-H460): > 100 µM (inactive) | GI50 (UO-31): > 100 µM (inactive) | GI50 (LOX IMVI): > 100 µM (inactive) | GI50 (SR): > 100 µM (inactive) | GI50 (NCI-H226): > 100 µM (inactive) | GI50 (OVCAR-4): > 100 µM (inactive) | GI50 (A549): > 100 µM (inactive) | GI50 (MOLT-4): > 100 µM (inactive) | GI50 (EKVX): > 100 µM (inactive) | GI50 (COLO 205): > 100 µM (inactive) | GI50 (IGROV-1): > 100 µM (inactive) | GI50 (OVCAR-3): > 100 µM (inactive) | GI50 (NCI-H522): > 100 µM (inactive) | GI50 (HT-29): > 100 µM (inactive) | GI50 (HCC 2998): > 100 µM (inactive) | GI50 (U-251): > 100 µM (inactive)
